The source of these data is patent US20250268903A1, “RXFP1 AGONISTS” (BRISTOL-MYERS SQUIBB COMPANY, priority 2021, published 2025).

For the first series, the target named is T1, human RXFP1 (Homo sapiens, UniProt Q9HBX9).
T1 construct: expressed in transfected cells
T1 sequence (Q9HBX9 1-757): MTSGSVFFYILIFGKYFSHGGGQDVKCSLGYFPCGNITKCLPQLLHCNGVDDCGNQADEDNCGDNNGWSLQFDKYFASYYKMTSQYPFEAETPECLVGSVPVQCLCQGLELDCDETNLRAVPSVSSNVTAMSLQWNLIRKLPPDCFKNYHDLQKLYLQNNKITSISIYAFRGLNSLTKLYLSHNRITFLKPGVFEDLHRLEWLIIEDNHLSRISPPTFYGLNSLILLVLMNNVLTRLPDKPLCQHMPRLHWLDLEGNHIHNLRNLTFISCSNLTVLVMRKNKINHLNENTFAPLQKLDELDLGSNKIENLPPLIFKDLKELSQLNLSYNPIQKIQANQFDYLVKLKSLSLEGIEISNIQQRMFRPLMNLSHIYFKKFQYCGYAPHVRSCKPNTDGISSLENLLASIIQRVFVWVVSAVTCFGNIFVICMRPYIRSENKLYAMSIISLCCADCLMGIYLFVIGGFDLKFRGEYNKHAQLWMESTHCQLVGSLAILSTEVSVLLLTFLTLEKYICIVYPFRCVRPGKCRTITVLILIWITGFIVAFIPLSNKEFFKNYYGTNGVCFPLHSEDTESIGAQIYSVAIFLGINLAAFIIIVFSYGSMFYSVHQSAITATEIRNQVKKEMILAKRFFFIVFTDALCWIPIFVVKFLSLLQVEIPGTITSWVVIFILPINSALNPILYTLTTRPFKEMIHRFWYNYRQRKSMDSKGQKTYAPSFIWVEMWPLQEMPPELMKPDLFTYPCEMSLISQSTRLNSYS
The series is described as follows: hRXFP1 HEK293 cAMP assay (HTRF). As to conditions: HEK293 cells stably expressing human RXFP1, 30 min at room temperature. Type of series: cell-based. An outline of the steps:
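hRXFP1-HEK293 stable line; HBSS + Ca/Mg, 20 mM HEPES, 0.05% BSA, 0.5 mM IBMX; cpd 0.010 nM–50 μM, 2% DMSO; 30 min RT; lysis, HTRF cAMP detection; 4-PL fit.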
For orientation: cAMP levels reflect the balance of adenylyl cyclase and phosphodiesterase activity.
On to `COc1ccc(/C=C/C(N)=O)cc1C(=O)N[C@@H]1C2CCC(/C2=C/C(F)(F)F)[C@@H]1C(=O)Nc1ccc(F)c(C(F)(F)F)c1` (stereo partly drawn) [Example 132, (2S,3R,7Z)-3-{5-[(1E)-2-carbamoyleth-1-en-1-yl]-2-methoxybenzamido}-N-[4-fluoro-3-(trifluoromethyl)phe-nyl]-7-(2,2,2-trifluoroethylidene)bi-cyclo[2.2.1]heptane-2-carboxamide], for which the EC50 (usually the concentration at which the effect is half-maximal) stood at 380 nM. As for `COc1ccc(CCCNC(=O)CO)cc1C(=O)N[C@@H]1C2CCC(/C2=C/C(F)(F)F)[C@@H]1C(=O)Nc1ccc(F)c(C(F)(F)F)c1` (stereo partly drawn) [Example 116, (2S,3R,7Z)-N-[4-fluoro-3-(trifluoromethyl)phe-nyl]-3-{5-[3-(2-hydroxyacetamido)pro-pyl]-2-methoxybenzamido}-7-(2,2,2-trifluoroethylidene)bi-cyclo[2.2.1]heptane-2-carboxamide], the EC50 was 940 nM. The same measure, in the same setting: then `COC(=O)C1CC2(C1)CC(c1ccc(OC)c(C(=O)N[C@@H]3C4CCC(/C4=C/C(F)(F)F)[C@@H]3C(=O)Nc3ccc(F)c(C(F)(F)F)c3)c1)C2` (single isomer, unassigned) [Example 150], with 715 nM; and `COc1ccc(C2CC3CC(O)CC32)cc1C(=O)N[C@H]1[C@@H](C(=O)Nc2ccc(F)c(C(F)(F)F)c2)[C@H]2CC[C@@H]1/C2=C\C1CC1` (single isomer, unassigned) [Example 342], with 27.8 nM. On to `COc1ccc(CCc2ccc(F)cc2)cc1C(=O)NC1C2CCC(/C2=C/C(F)(F)F)[C@@H]1C(=O)Nc1ccc(F)c(C(F)(F)F)c1` (stereo partly shown) [Example 179, (7Z)-N-[4-fluoro-3-(trifluoromethyl)phe-nyl]-3-{5-[2-(4-fluorophenyl)ethyl]-2-methoxybenzamido}-7-(2,2,2-trifluoroethylidene)bi-cyclo[2.2.1]heptane-2-carboxamide], for which a half-maximal effect (EC50) was put at 267 nM. Same read-out and setting: under `COc1ccc(COC2CCC(OCc3ccccc3)CC2)cc1C(=O)N[C@@H]1C2CCC(/C2=C/C2CC2)[C@@H]1C(=O)Nc1ccc(F)c(C(F)(F)F)c1` (single isomer, unassigned) [Example 24] stands 1810 nM; under `COc1ccc(CCCCC(F)(F)F)cc1C(=O)NC1C2CCC(/C2=C/C2CCC2)[C@@H]1C(=O)Nc1ccc(F)c(C(F)(F)F)c1` (stereo partly shown) [Example 193, (7Z)-7-(cyclobutylmethyli-dene)-N-[4-fluoro-3-(trifluoromethyl)phe-nyl]-3-[2-methoxy-5-(5,5,5-trifluoropentyl)benz-amido]bicyclo[2.2.1] heptane-2-carboxamide], 55 nM; under `COc1ccc(C(C)CCO)cc1C(=O)N[C@@H]1C2CCC(/C2=C/C(F)(F)F)[C@@H]1C(=O)Nc1ccc(F)c(C(F)(F)F)c1` (single isomer, unassigned) [Example 60], 648 nM.

In the case of `COc1ccc(C#CCCCOC(=O)NC2CCC2)cc1C(=O)N[C@@H]1C2CCC(/C2=C/C(F)(F)F)[C@@H]1C(=O)Nc1ccc(F)c(C(F)(F)F)c1` (stereo partly drawn) [Example 80, 5-(3-{[(2R,3S,7Z)-3-{[4-fluoro-3-(trifluoromethyl)phe-nyl]carbamoyl}-7-(2,2,2-trifluoroethylidene)bi-cyclo[2.2.1]heptan-2-yl]carbamoyl}-4-methoxyphenyl)pent-4-yn-1-yl N-cyclobutylcarbamate], the EC50 was 303 nM.

Tested on in the next series: not given
Assay: not given
To be noted: intravenous (IV) formulation; cited from earlier work.
In the case of “Serelaxin: "an intravenous (IV) formulation of the recombinant human relaxin peptide with a relatively short first-phase pharmacokinetic half-life of 0.09 hours"”, the first-phase pharmacokinetic half-life was 5.4 min.
